Several values for one entry are separate records, joined by “and”; a condition that tells them apart may be missing. Equal values may be shown once. Toxic doses and inconclusive results are not listed.
Tested on: P388 leukemia ip, CD2F1 mice, survival T/C
Assay: NCI In Vivo Anticancer Drug Screen. Data for tumor model P388 Leukemia (intraperitoneal) in CD2F1 (CDF1) mice
Conditions: endpoint: median survival time, higher = longer survival
Procedure, shortened: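 Mice carrying the transplanted tumor received test compound or vehicle. Survival was recorded in each group, and the value is the treated-group measurement divided by that of the vehicle-treated control group.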

What does the source list for `N[C@H](C(=O)O)[C@@H]1CC(Cl)=NO1`?
T/C (dose: 0.03 mg/kg/injection, schedule: Q01DX009 (ip), vehicle: saline): 105 % of control and 108 % of control; T/C (dose: 0.06 mg/kg/injection, schedule: Q01DX009 (ip), vehicle: saline): 113 % of control; T/C (dose: 0.13 mg/kg/injection, schedule: Q01DX009 (ip), vehicle: saline): 120 % of control; T/C (dose: 0.25 mg/kg/injection, schedule: Q01DX009 (ip), vehicle: saline): 150 % of control; T/C (dose: 0.5 mg/kg/injection, schedule: Q01DX009 (ip), vehicle: saline): 155 % of control; T/C (dose: 0.63 mg/kg/injection, schedule: Q01DX009 (ip), vehicle: saline): 174 % of control; T/C (dose: 0.75 mg/kg/injection, schedule: Q01DX009 (ip), vehicle: saline): 155 % of control; T/C (dose: 1.0 mg/kg/injection, schedule: Q01DX009 (ip), vehicle: saline): 150 % of control and 171 % of control; T/C (dose: 1.0 mg/kg/injection, schedule: Q01DX009 (ip), vehicle: water): 121 % of control; T/C (dose: 1.25 mg/kg/injection, schedule: Q01DX009 (ip), vehicle: saline): 213 % of control; T/C (dose: 1.94 mg/kg/injection, schedule: Q01DX009 (ip), vehicle: saline): 165 % of control and 179 % of control and 192 % of control; T/C (dose: 2.0 mg/kg/injection, schedule: Q01DX005 (ip), vehicle: saline): 119 % of control; T/C (dose: 2.0 mg/kg/injection, schedule: Q01DX005 (ip), vehicle: water): 111 % of control; T/C (dose: 2.0 mg/kg/injection, schedule: Q01DX005 (iv), vehicle: saline): 119 % of control; T/C (dose: 2.0 mg/kg/injection, schedule: Q01DX009 (ip), vehicle: saline): 152 % of control and 164 % of control and 198 % of control; T/C (dose: 2.0 mg/kg/injection, schedule: Q01DX009 (ip), vehicle: water): 153 % of control; T/C (dose: 2.3 mg/kg/injection, schedule: Q01DX009 (ip), vehicle: saline): 190 % of control; T/C (dose: 2.5 mg/kg/injection, schedule: Q01DX009 (ip), vehicle: saline): 235 % of control; T/C (dose: 3.0 mg/kg/injection, schedule: Q01DX005 (iv), vehicle: saline): 119 % of control; T/C (dose: 3.0 mg/kg/injection, schedule: Q01DX009 (ip), vehicle: saline): 175 % of control and 180 % of control and 238 % of control; T/C (dose: 3.12 mg/kg/injection, schedule: Q01DX005 (ip), vehicle: water): 155 % of control; T/C (dose: 3.24 mg/kg/injection, schedule: Q01DX009 (ip), vehicle: saline): 177 % of control and 189 % of control and 203 % of control; T/C (dose: 3.5 mg/kg/injection, schedule: Q01DX009 (ip), vehicle: saline): 194 % of control; T/C (dose: 4.0 mg/kg/injection, schedule: Q01DX005 (ip), vehicle: saline): 161 % of control; T/C (dose: 4.0 mg/kg/injection, schedule: Q01DX005 (iv), vehicle: saline): 119 % of control; T/C (dose: 4.0 mg/kg/injection, schedule: Q01DX009 (ip), vehicle: saline): 161 % of control and 190 % of control; T/C (dose: 4.0 mg/kg/injection, schedule: Q01DX009 (ip), vehicle: water): 112 % of control; T/C (dose: 4.32 mg/kg/injection, schedule: Q01DX005 (ip), vehicle: saline): 154 % of control; T/C (dose: 5.0 mg/kg/injection, schedule: Q01DX005 (ip), vehicle: saline): 158 % of control; T/C (dose: 5.0 mg/kg/injection, schedule: Q01DX009 (ip), vehicle: saline): 235 % of control; T/C (dose: 5.3 mg/kg/injection, schedule: Q01DX009 (ip), vehicle: saline): 203 % of control; T/C (dose: 5.4 mg/kg/injection, schedule: Q01DX009 (ip), vehicle: saline): 163 % of control and 188 % of control and 204 % of control; T/C (dose: 6.0 mg/kg/injection, schedule: Q01DX009 (ip), vehicle: saline): 173 % of control and 186 % of control and 319 % of control; T/C (dose: 6.25 mg/kg/injection, schedule: Q01DX005 (ip), vehicle: water): 150 % of control and 168 % of control; T/C (dose: 7.2 mg/kg/injection, schedule: Q01DX005 (ip), vehicle: saline): 156 % of control; T/C (dose: 8.0 mg/kg/injection, schedule: Q01DX005 (ip), vehicle: saline): 171 % of control and 182 % of control; T/C (dose: 8.0 mg/kg/injection, schedule: Q01DX005 (iv), vehicle: saline): 119 % of control; T/C (dose: 8.0 mg/kg/injection, schedule: Q01DX009 (ip), vehicle: saline): 186 % of control and 210 % of control; T/C (dose: 8.0 mg/kg/injection, schedule: Q01DX009 (ip), vehicle: water): 184 % of control; T/C (dose: 9.0 mg/kg/injection, schedule: Q01DX009 (ip), vehicle: saline): 99 % of control; T/C (dose: 10.0 mg/kg/injection, schedule: Q01DX005 (ip), vehicle: saline): 164 % of control; T/C (dose: 12.0 mg/kg/injection, schedule: Q01DX005 (ip), vehicle: saline): 220 % of control; T/C (dose: 12.0 mg/kg/injection, schedule: Q01DX005 (iv), vehicle: saline): 171 % of control; T/C (dose: 12.5 mg/kg/injection, schedule: Q01DX005 (ip), vehicle: water): 155 % of control and 182 % of control; T/C (dose: 15.0 mg/kg/injection, schedule: Q01DX009 (ip), vehicle: saline): 98 % of control and 100 % of control; T/C (dose: 16.0 mg/kg/injection, schedule: Q01DX005 (ip), vehicle: saline): 164 % of control and 181 % of control; T/C (dose: 16.0 mg/kg/injection, schedule: Q01DX005 (ip), vehicle: water): 152 % of control and 163 % of control; T/C (dose: 16.0 mg/kg/injection, schedule: Q01DX009 (ip), vehicle: saline): 102 % of control and 218 % of control; T/C (dose: 16.0 mg/kg/injection, schedule: Q01DX009 (ip), vehicle: water): 198 % of control; T/C (dose: 20.0 mg/kg/injection, schedule: Q01DX005 (ip), vehicle: saline): 169 % of control and 176 % of control; T/C (dose: 20.0 mg/kg/injection, schedule: Q04DX003 (ip), vehicle: saline): 158 % of control; T/C (dose: 24.0 mg/kg/injection, schedule: Q01DX005 (ip), vehicle: saline): 222 % of control; T/C (dose: 24.0 mg/kg/injection, schedule: Q01DX005 (iv), vehicle: saline): 108 % of control; T/C (dose: 25.0 mg/kg/injection, schedule: Q01DX005 (ip), vehicle: water): 155 % of control and 187 % of control; T/C (dose: 32.0 mg/kg/injection, schedule: Q01DX005 (ip), vehicle: saline): 225 % of control; T/C (dose: 32.0 mg/kg/injection, schedule: Q01DX005 (ip), vehicle: water): 170 % of control; T/C (dose: 40.0 mg/kg/injection, schedule: Q04DX003 (ip), vehicle: saline): 180 % of control and 196 % of control; T/C (dose: 50.0 mg/kg/injection, schedule: Q04DX003 (ip), vehicle: other): 163 % of control; T/C (dose: 80.0 mg/kg/injection, schedule: Q04DX003 (ip), vehicle: saline): 150 % of control and 190 % of control and 297 % of control; T/C (dose: 100.0 mg/kg/injection, schedule: Q04DX003 (ip), vehicle: other): 161 % of control; T/C (dose: 160.0 mg/kg/injection, schedule: Q04DX003 (ip), vehicle: saline): 118 % of control and 164 % of control and 250 % of control

Which results are given for `CCOC(=O)C1=C(Nc2ccc(Cl)cc2)C(=O)N(C(C)(C)C)C1`?
T/C (dose: 60.0 mg/kg/injection, schedule: Q01DX005 (ip), vehicle: saline with Tween-80): 111 % of control; T/C (dose: 120.0 mg/kg/injection, schedule: Q01DX005 (ip), vehicle: saline with Tween-80): 108 % of control; T/C (dose: 240.0 mg/kg/injection, schedule: Q01DX005 (ip), vehicle: saline with Tween-80): 109 % of control

`CCOC(=O)c1c(C)c2c(n1C)CCc1cn[nH]c1-2` was tested. Which T/C (dose: 25.0 mg/kg/injection, schedule: Q01DX009 (ip), vehicle: Klucel (hydroxypropylcellulose) (HPC)) did it give?
Its T/C is 99 % of control.

What about the T/C (dose: 50.0 mg/kg/injection, schedule: Q01DX009 (ip), vehicle: Klucel (hydroxypropylcellulose) (HPC)) of the same molecule?
The T/C was 105 % of control.

What about the T/C (dose: 100.0 mg/kg/injection, schedule: Q01DX009 (ip), vehicle: Klucel (hydroxypropylcellulose) (HPC)) of the same molecule?
The T/C was 107 % of control.

And the T/C (dose: 200.0 mg/kg/injection, schedule: Q01DX009 (ip), vehicle: Klucel (hydroxypropylcellulose) (HPC))?
The T/C was 107 % of control.

What about the T/C (dose: 400.0 mg/kg/injection, schedule: Q01DX009 (ip), vehicle: Klucel (hydroxypropylcellulose) (HPC)) of the same molecule?
Its T/C is 98 % of control.

And the T/C (dose: 600.0 mg/kg/injection, schedule: Q01DX009 (ip), vehicle: Klucel (hydroxypropylcellulose) (HPC))?
Its T/C is 98 % of control.

Which T/C (dose: 100.0 mg/kg/injection, schedule: Q01DX001 (ip), vehicle: Klucel (hydroxypropylcellulose) (HPC)) does the source give for `CC(=O)c1cc2c(cc1I)OCO2` here?
The T/C was 101 % of control.

And the T/C (dose: 200.0 mg/kg/injection, schedule: Q01DX001 (ip), vehicle: Klucel (hydroxypropylcellulose) (HPC))?
Its T/C is 99 % of control.

And the T/C (dose: 400.0 mg/kg/injection, schedule: Q01DX001 (ip), vehicle: Klucel (hydroxypropylcellulose) (HPC))?
The T/C was 101 % of control.

What does the source list for `Cc1cccc(=O)[n-]1.Cc1cccc(=O)[n-]1.Cc1cccc(=O)[n-]1.Cc1cccc(=O)[n-]1.[Mo+2].[Mo+2]`?
T/C (dose: 100.0 mg/kg/injection, schedule: Q04DX002 (ip), vehicle: Klucel (hydroxypropylcellulose) (HPC)): 102 % of control; T/C (dose: 200.0 mg/kg/injection, schedule: Q04DX002 (ip), vehicle: Klucel (hydroxypropylcellulose) (HPC)): 98 % of control; T/C (dose: 400.0 mg/kg/injection, schedule: Q04DX002 (ip), vehicle: Klucel (hydroxypropylcellulose) (HPC)): 100 % of control

Which results are given for `CC1(C2CCC3(C)OC3C2)CO1` (centres undefined)?
T/C (dose: 50.0 mg/kg/injection, schedule: Q01DX005 (ip), vehicle: saline with Tween-80): 100 % of control; T/C (dose: 100.0 mg/kg/injection, schedule: Q01DX005 (ip), vehicle: saline with Tween-80): 100 % of control; T/C (dose: 200.0 mg/kg/injection, schedule: Q01DX005 (ip), vehicle: saline with Tween-80): 100 % of control

— PubChem BioAssay AID330 (DTP/NCI, 2004)
